Consider 1 compound from paper PMC10381170, “1,3,4-Oxadiazole and 1,3,4-Thiadiazole Nortopsentin Derivatives against Pancreatic Ductal Adenocarcinoma: Synthesis, Cytotoxic Activity, and Inhibition of CDK1” (Marine Drugs, 2023).

Series [1] relates to BxPC-3 cells. As to the kind of experiment: SRB antiproliferative assay, BxPC-3. Format: cell-based, human. On the procedure: (§1) The cytotoxic activity of the nortopsentin derivatives 3b, 3e, 4c, 5b, and 6c on pancreatic cancer cells (BxPC-3, Panc-1, Suit-2, Capan-1, PaTu-T, primary PDAC-3 and resistant Panc-1-GR cells) was determined by the sulforhodamine B (SRB) chemosensitivity assay, as described previously. Cells were plated in 96-well flat-bottom plates at final concentrations ranging from 3000–5000 cells/well in 100 µL of medium. After a 24 h pre-incubation period, cells were treated with the compounds at nine screening concentrations (from 0.1 μM to 40 μM) in triplicate and incubated at 37 °C for 72 h. After the treatment, cells were fixed with 25 µL of cold 50% trichloroacetic acid (TCA) for each well and incubated at 4 °C for 1 h. Afterwards, plates were washed five times with demi-water and air-dried overnight. Then, the plates were stained with 50 µL of 0.4% SRB solution in 1% acetic acid for 15 min. The excess stain was rinsed off by placing the plates under running 1% acetic acid and allowed to dry at room temperature overnight. SRB staining was rinsed with 150 µL tris(hydroxymethyl)aminomethane solution pH = 8.8 (TRIS-base), and the optical density (OD) was read at 492 nm. Each assay was performed in triplicate and assays were repeated at least three times. The comparison of the average optical density of the growth in control wells with that in the sample wells allowed the estimation of the percentage of cell growth, using the following equation: % Cell Growth = (mean ODcompound − mean ODday zero plate)/(mean ODcells − mean ODday zero plate) × 100
(§2) The results obtained were adjusted by the day zero plate (wells containing cells growing for only 24 h) and normalized by the control cells (wells with untreated cells) to obtain the rate of viable cells.
On the technique in general: In SRB staining, fixed cells bind dye roughly in proportion to their protein.

In the next series the test system is Panc-1 cells. The experiment in a line: SRB antiproliferative assay, Panc-1. Format: cell-based, human. On the procedure:
as §1, §2

For a further series, the system named is Panc-1-GR cells. As to the kind of experiment: SRB antiproliferative assay, gemcitabine-resistant Panc-1-GR. Type of series: cell-based, human. On the procedure: as §1, §2
A further series relates to PaTu-T cells. As to the kind of experiment: SRB antiproliferative assay, PaTu-T. Type of series: cell-based, human. On the procedure:
as §1, §2

The test system of a further series is PDAC cells. The experiment in a line: SRB antiproliferative assay, whole PDAC panel. Type of series: cell-based. The settings on record: Homo sapiens; seven PDAC models, 72 h; read-out: IC50 values, range over the PDAC cell panel. On the procedure:
as §1, with “The comparison of the average optical density of the growth in control wells with that in the sample wells allowed the estimation of the percentage of cell growth, using the following equation: % Cell Growth = (mean ODcompound − mean ODday zero plate)/(mean ODcells − mean ODday zero plate) × 100” left out

The test system of series [2] is normal human skin fibroblasts Hs27. The experiment in a line: SRB cytotoxicity on normal fibroblasts. Format: cell-based. On the procedure: The compound was tested at eight different concentrations ranging from 0.31 μM to 40 μM using the SRB assay. […] At the highest concentration tested (40 μM), only 18% growth inhibition was observed after 72 h of exposure. […] These findings provide evidence of the potential safety of compound 3b for further development as a therapeutic agent.
as §1

In a further series the test system is Suit-2 cells. As to the kind of experiment: Cell-cycle analysis by PI flow cytometry, Suit-2. Type of series: cell-based, human. On the procedure: Cell cycle perturbation was analyzed by flow cytometry. Optimized numbers of cells (5 × 10^5 cells/mL) were seeded in 6-well plates. […] After treatment, the cells were harvested by trypsinization (250 µL trypsin-EDTA/well), incubated until the cells detached, re-suspended using the same medium used for culture, collected in specific FACS (Fluorescence Activated Cell Sorting) tubes, and washed with 1.5 mL phosphate-buffered saline (PBS). The samples were then centrifuged to form a pellet (5 min at 1500 rpm). These pellets were fixed in 1 mL of ice-cold 70% ethanol, added drop by drop during vortex, and placed in the refrigerator at 4 °C. After overnight incubation, the cells were washed twice with PBS, centrifuged (5 min at 1500 rpm), re-suspended in […] of RNase ([…]) and incubated for 30 min at 37 °C. Finally, […] of propidium iodide solution (PI, […]) was added, and the cell distribution in the various phases of the cell cycle was analyzed in a FACS Calibur instrument. Data analysis was carried out with FACSdiva software (Becton Dickinson), while cell cycle distribution was determined using Modfit software (Verity-Software, Topsham, ME, USA).
In general terms: In flow cytometry, cells or beads pass a laser one at a time.

Series [3] concerns BxPC-3 cells. As to the kind of experiment: Scratch wound-healing assay, BxPC-3. Format: cell-based, human. The note with it: BxPC-3, 8 h, 4 × IC50, untreated = 100% wound closure. On the procedure:
Cell migration was assessed using a wound-healing assay, as described previously. A total of 5 × 10^4 cells/well were seeded in a 96-well plate, to form a confluent monolayer. Scratches were created in confluent cell layers using the sterile scratch tool. The detached cells following scratch induction were removed and new medium was added to the wells. Cells were next treated with compounds 3b and 5b at a concentration of 4 × IC50. Cells growing in a complete medium were maintained at 37 °C with a supply of 5% CO2/95% air atmosphere and 100% relative humidity. The progress of wound closure was observed and documented at various time points (0th, 4th, 8th, 20th, and 24th h) using phase-contrast microscopy. Pictures of the plates were taken using the Universal Grab 6.3 software (DCILabs) from a computer connected to a Leica microscope with a JAI TMC-1327 camera.
The percentage of migration was calculated using the following equation:%Migration = (Width of the wound at T = 0 − Width of the wound at T = X)/(Width of the wound at T = 0) × 100

Series [4] has as its system CDK1. The experiment in a line: CDK1 ELISA in Suit-2. Format: cell-based, human. The note with it: Suit-2, 10 µM, 24 h, vs DMSO control, p < 0.01. On the procedure: (§3) The expression of CDK1 was detected and quantified using an Enzyme-Linked Immunosorbent Assay (ELISA, Human cyclin-dependent kinase 1 (CDK1) ELISA Kit, Catalog Number: MBS707090) according to the manufacturer’s protocol and our previous studies. Volumes of 100 µL of the standard and the sample were added for each well, and the plates were incubated for 2 h at 37 °C. Then, the liquid was removed, and 100 µL of biotin-antibody was added to each well; the plates were then incubated for 1 h at 37 °C. The medium was removed, and the plates were washed with wash buffer (200 µL). Subsequently, 100 µL of HRP-avidin was added to each well, and the plates were incubated for 1 h at 37 °C. The washing process was repeated five times. At the end, 90 µL of TMB substrate was added to each well, and the plates were incubated for 30 min at 37 °C in the dark. Finally, 50 µL of stop solution was added to each well. The optical density of each well was determined using a microplate reader set to 450 nm.
For orientation: ELISA stands for enzyme-linked immunosorbent assay.

The subject of series [5] is CDK1. As to the kind of experiment: CDK1 ELISA in PDAC-3. Format: cell-based, human. The note with it: PDAC-3, 10 µM, 24 h, vs DMSO control, p < 0.01. On the procedure: as §3
[6] abbreviates: Homo sapiens, 72 h, mean ± SEM, read-out: Half-maximal inhibitory concentration (IC50).
The mark [7] stands for this setting: Suit-2, 2 μM, 24 h (control 23%).
[8] abbreviates: Suit-2, 4-fold IC50, 24 h (control 23%).

On to `Cn1cc(-c2nnc(-c3cn(C)c4ncccc34)o2)c2ccccc21` [3b, 1-methyl-3-[5-(1-methyl-1H-indol-3-yl)-1,3,4-oxadiazol-2-yl]-7-azaindole], for which the Cell growth percentage is 11.10% in the series with BxPC-3 cells [1] (BxPC-3, 10 μM, 72 h exposure); 9.12% in the series with Panc-1 cells (Panc-1, 10 μM, 72 h exposure); 22.47% with Panc-1-GR cells (10 μM, 72 h exposure); 17.13% in the series on PaTu-T cells (10 μM, 72 h exposure). Besides, the IC50 with BxPC-3 cells [1] (Homo sapiens, BxPC-3, 72 h, mean ± SEM, read-out: Half-maximal inhibitory concentration (IC50)) is 2.1 ± 0.006 µM; in the series with Panc-1 cells (Homo sapiens, Panc-1, 72 h, mean ± SEM, read-out: Half-maximal inhibitory concentration (IC50)) it was 2.5 ± 0.55 µM; with Panc-1-GR cells (setting [6]) it was 8 ± 2.8 µM; with PaTu-T cells (setting [6]), 3.2 ± 0.42 µM; with PDAC cells it was 1.4 to 8.1 µM. The compound further had a growth inhibition in [2] (Hs27, 40 μM (highest concentration), 72 h) of 18%. In addition, the “cytotoxicity towards normal fibroblast cells” value in series [2] (Hs27, 0.31-40 μM) is reported as “relatively non-toxic”. Also, in series [2] (Hs27, concentrations below 10 μM, 72 h), the cell growth rate is listed as around 100%. Also, the “percentage of cells in G2-M phase” value with Suit-2 cells (setting [7]) amounted to 75%; in the series with Suit-2 cells (setting [8]), 76%. Besides, the “percentage of cells in S phase” value was determined as 15% in the series on Suit-2 cells (setting [7]) and 14% with Suit-2 cells (setting [8]). Also, the “percentage of cells in G0-G1 phase” value is reported as 10% with Suit-2 cells (Suit-2, 2 μM, 24 h (control 54%)) and 10% in the series on Suit-2 cells (Suit-2, 4-fold IC50, 24 h (control 54%)). Further, the “percentage of cells migrating” value with BxPC-3 cells [3] stood at 39%. The “CDK1 expression by ELISA” value in the series on CDK1 [4] and in the series on CDK1 [5] was “reduction in CDK1 expression” throughout.
